Among the data in US7875644B2, “1-acyldihydropyrazole derivatives” (Merck Patent GmbH, priority 2005, dated 2011) are IC50 values, retold here.

The target of the assay is T1, Met kinase (Homo sapiens, UniProt P08581).
T1 construct: 6His (N); purchased Upstate 14-526; host or cells: Sf21 insect cells (S. frugiperda), baculovirus
Briefly: Met kinase inhibition, flashplate method. The following applies: 33P-ATP, substrate pAGLT, 3 hrs at room temperature. The format is biochemical. The source says: According to the manufacturer's data (Met, active, upstate, catalogue No. 14-526), Met kinase is expressed for the purposes of protein production in insect cells (Sf21; S. frugiperda) and subsequent affinity-chromatographic purification as “N-terminal 6His-tagged” recombinant human protein in a baculovirus expression vector.
The test plates used are 96-well Flashplate^R microtitre plates from Perkin Elmer (Cat. No. SM P200). The components of the kinase reaction described below are pipetted into the assay plate. The Met kinase and the substrate poly Ala-Glu-Lys-Tyr, (pAGLT, 6:2:5:1), are incubated for 3 hrs at room temperature with radioactively labelled ^33P-ATP in the presence and absence of test substances in a total volume of 100 μl. The reaction is terminated using 150 μl of a 60 mM EDTA solution. After incubation for a further 30 min at room temperature, the supernatants are filtered off with suction, and the wells are washed three times with 200 μl of 0.9% NaCl solution each time. The measurement of the bound radioactivity is carried out by means of a scintillation measuring instrument (Topcount NXT, Perkin-Elmer).
The full value used is the inhibitor-free kinase reaction. This should be approximately in the range 6000-9000 cpm. The pharmacological zero value used is staurosporin in a final concentration of 0.1 mM. The inhibitory values (IC50) are determined using the RS1_MTS program.
Kinase reaction conditions per well: • 30 μl of assay buffer • 10 μl of substance to be tested in assay buffer with 10% of DMSO • 10 μl of ATP (final concentration 1 μM cold, 0.35 μCi of ^33P-ATP) • 50 μl of Met kinase/substrate mixture in assay buffer; • (10 ng of enzyme/well, 50 ng of pAGLT/well) • Solutions used: • Assay buffer: • 50 mM HEPES • 3 mM magnesium chloride • 3 μM sodium orthovanadate • 3 mM manganese(II) chloride • 1 mM dithiothreitol (DTT) • pH=7.5 (to be set using sodium hydroxide) • Stop solution: • 60 mM Titriplex III (EDTA) • ^33P-ATP: Perkin-Elmer; • Met kinase: Upstate, Cat. No. 14-526, Stock 1 μg/10 μl; spec. activity 954 U/mg; • Poly-Ala-Glu-Lys-Tyr, 6:2:5:1:Sigma Cat. No. P1152

T1 sequence (P08581 974-1390 limits assumed): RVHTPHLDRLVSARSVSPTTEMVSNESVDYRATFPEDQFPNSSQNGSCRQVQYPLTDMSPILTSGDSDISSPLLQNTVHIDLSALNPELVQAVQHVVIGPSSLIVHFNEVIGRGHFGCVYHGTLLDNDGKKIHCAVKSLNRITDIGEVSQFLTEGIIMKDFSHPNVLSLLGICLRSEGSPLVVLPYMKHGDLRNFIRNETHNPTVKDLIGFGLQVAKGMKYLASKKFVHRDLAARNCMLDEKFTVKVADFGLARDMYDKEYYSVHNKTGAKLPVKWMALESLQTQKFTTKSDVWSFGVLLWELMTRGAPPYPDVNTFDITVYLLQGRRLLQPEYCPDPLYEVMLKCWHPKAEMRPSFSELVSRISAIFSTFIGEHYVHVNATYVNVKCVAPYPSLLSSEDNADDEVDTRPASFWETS

`CC(C(=O)N1CCC(c2ccc3c(c2)CNC(=O)N3)=N1)c1ccc(O)cc1` (stereo not drawn) [Compound A100, 3-(2-Oxo-3,4-dihydro-1H-quinazolin-6-yl)-1-[2-(4-hydroxyphenyl)propionyl]-4,5-dihydro-1H-pyrazole] gave an IC50 of 9 nM.

Consider `COc1ccc(C2=NN(C(=O)Cc3cccc(O)c3)CC2)c(OC)c1` [Compound A30, 1-(3-Hydroxybenzylcarbonyl)-3-(2,4-dimethoxy-phenyl)-4,5-dihydro-1H-pyrazole], for which the IC50 is 990 nM. Compared with the last molecule, the IC50 is about 110-fold higher. The figure for `O=C(Cc1ccc2nsnc2c1)N1CCC(c2ccc(F)cc2)=N1` [Compound A2, 1-(benzo-1,2,5-thiadiazol-5-ylmethylcarbonyl)-3-(4-fluorophenyl)-4,5-dihydro-1H-pyrazole] is 610 nM. The figure for `CN(C)CCCOC(=O)Nc1cccc(CC(=O)N2CCC(c3cc(Cl)ccc3Cl)=N2)c1` [Compound A153, 3-Dimethylaminopropyl (3-{2-[3-(2,5-dichlorophenyl)-4,5-dihydro-1H-pyrazol-1-yl]-2-oxoethyl}phenyl)carbamate] is 8 nM; for `O=C(Nc1cccc(CC(=O)N2CCC(c3cc(Cl)ccc3Cl)=N2)c1)OCCCN1CCOCC1` [Compound A154, 3-morpholin-4-ylpropyl (3-{2-[3-(2,5-dichlorophenyl)-4,5-dihydro-1H-pyrazol-1-yl]-2-oxoethyl}phenyl)carbamate] it is 2.5 nM. `CC(C(=O)N1CCC(c2cc(Cl)ccc2O)=N1)c1ccc(O)cc1` (stereo not drawn) [Compound A120, 3-(3-Chloro-6-hydroxyphenyl)-1-[2-(4-hydroxy-phenyl)propionyl]-4,5-dihydro-1H-pyrazole]: the half-maximal inhibitory concentration (IC50) turned out to be 3.6 nM.

Consider `O=C(Cc1ccc2[nH]cnc2c1)N1CCC(c2cc(Cl)ccc2O)=N1` [Compound A108, 1-[2-(1H-Benzimidazol-5-yl)acetyl]-3-(3-chloro-6-hydroxyphenyl)-4,5-dihydro-1H-pyrazole], for which the IC50 worked out at 3 nM. The figure for `COc1ccc(C2=NN(C(=O)Cc3ccc4nsnc4c3)CC2)c(OC)c1` [Compound A1, 1-(benzo-1,2,5-thiadiazol-5-ylmethylcarbonyl)-3-(2,4-dimethoxyphenyl)-4,5-dihydro-1H-pyrazole] is 320 nM; for `O=C(Cc1cccc(O)c1)N1CCC(c2ccc(F)cc2)=N1` [Compound A31, 1-(3-Hydroxybenzylcarbonyl)-3-(4-fluorophenyl)-4,5-dihydro-1H-pyrazole] it is 330 nM.
